Experimental data published in patent US6395730B1, “Potassium channel inhibitors” (Icagen, Inc., priority 1998, dated 2002).

Legend:
[1] = target: Kv1.5 potassium channel subunit (Homo sapiens, UniProt P22460); experiment: Electrophysiological studies (whole cell patch clamp); assay type: cell-based; settings: inhibition of Kv1.5 potassium currents, Chinese hamster ovary cells stably expressing Kv1.5
Method: Electrophysiological recordings of potassium currents in Chinese hamster ovary cells stably expressing the gene construct for the Kv1.5 potassium channel subunit were performed using the whole cell configuration of the patch clamp technique (Hamill et al., Pflugers Archiv 391:85, 1981). Cell lines expressing Kv1.5 were prepared using standard techniques known to those skilled in the art. Cells were plated on glass coverslips at a density of 2×10^4 cells/coverslip and used within 24-48 hours. Solutions used for electrophysiological recordings were as follows. Extracellular bathing solutions contained (in mM) 132 NaCl, 5.4 KCl, 1.8 CaCl2, 0.8 MgCl2, 10 HEPES, 5 glucose at pH 7.3. Electrode pipette solutions for measuring Kv1.5 contain (in mM) 100 KF, 40 KCl, 5 NaCl, 2 MgCl2, 5 mM EGTA, 10 mM HEPES and 5 glucose at pH 7.4, 295 mOsm. The coverslips were placed in a small chamber (volume ˜200 μl) on the mechanical stage of an inverted microscope and […] (2 ml/min) with extracellular recording solution. Drug application is achieved via a series of narrow-bore glass capillary tubes (inner diameter ˜100 μm) positioned approximately 200 μm from the cell.
The testing results of selective compounds from Tables 1 and 2 using this assay are reported in Table 3 (EP) as the potency for inhibition of Kv1.5 potassium currents by compounds of the invention.

human Kv1.5 = target: T1, human Kv1.5 (Homo sapiens, UniProt P22460); experiment: 86Rb efflux assay; assay type: cell-based; settings: inhibition of 86Rb efflux through Kv1.5 potassium channels expressed in CHO cells; 70 mM KCl depolarization; read-out: IC50 (μM) (flux)
T1 construct: expressed in transfected cells
T1 sequence (P22460 whole entry): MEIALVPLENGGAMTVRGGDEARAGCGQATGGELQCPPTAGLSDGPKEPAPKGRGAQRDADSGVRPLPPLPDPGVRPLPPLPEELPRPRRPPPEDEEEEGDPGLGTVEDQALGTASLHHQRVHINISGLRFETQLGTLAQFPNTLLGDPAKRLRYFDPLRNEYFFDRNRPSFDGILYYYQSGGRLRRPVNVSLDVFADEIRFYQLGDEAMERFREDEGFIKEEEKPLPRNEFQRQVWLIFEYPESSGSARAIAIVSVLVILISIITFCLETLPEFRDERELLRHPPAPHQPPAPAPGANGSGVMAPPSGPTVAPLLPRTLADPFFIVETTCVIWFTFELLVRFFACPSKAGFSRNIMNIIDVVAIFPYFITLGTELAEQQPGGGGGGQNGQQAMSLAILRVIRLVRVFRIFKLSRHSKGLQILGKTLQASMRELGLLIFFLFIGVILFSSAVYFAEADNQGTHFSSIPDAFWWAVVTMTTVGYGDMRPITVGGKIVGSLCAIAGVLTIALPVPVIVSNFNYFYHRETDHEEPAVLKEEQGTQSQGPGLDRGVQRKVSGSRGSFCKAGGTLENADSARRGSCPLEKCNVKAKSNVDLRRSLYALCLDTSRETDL
Method: Cells stably transfected with cDNA for human Kv1.5 (in pcDNA3 vector) were grown as confluent monolayers in 96 well tissue culture plates in MEM alpha with 10% heat inactivated fetal bovine serum and 400 μg/ml G418. Cells were incubated overnight in growth media containing 1 μCi/ml ^86Rb to permit intracellular uptake of the isotope. At the end of the incubation period, the ^86Rb solution is aspirated and the cells washed three times with Earls Balanced Salt Solution (EBSS) which contains (in mM) 132 NaCl, 5.4 KCl, 1.8 CaCl2, 0.8 mM MgCl2 10 mM HEPES and 5 mM glucose. The cells were then preincubated for 10 minutes at room temperature in 100 μl/well of EBSS or EBSS containing test compounds. At the end of this period the wells were aspirated and to each well is then added 100 μl of a modified EBSS solution containing 70 mM KCl (NaCl replaced by KCl) and the compound to be tested. The high KCl concentration is utilized to depolarize the cells to membrane potentials that will activate Kv1.5 channels. After a 1 minute incubation in 70 mM KCl EBSS plus test compound, the solution is removed and placed into the appropriate well of a 96 well counting plate for analysis. Finally 100 μl of 0.1% sodium dodecyl sulfate in EBSS is added to each well to lyse the cells. The lysate is taken for analysis to determine final cell content of ^86Rb. Samples were counted in a Wallac Microbeta liquid scintillation counter by Cerenkov emission. Efflux is expressed as a percentage of the initial cell content of ^86Rb.
The testing results of selective compounds from Tables 1 and 2 using this assay are reported in Table 3 (flux) as the potency for inhibition of ^86Rb efflux through Kv1.5 potassium channels expressed in CHO cells by compounds of the invention.

Kv1.5 potassium channel subunit, sequence (P22460 whole entry): as above

IC50 [1] [µM] | IC50 (human Kv1.5) [µM] | SMILES
0.6 | 3.9 | COc1ccc(CCN2C(=O)CSC2c2cccc(OC)c2)cc1 (centres unmarked) [1 of Table 1]
0.3 | 1.5 | COc1ccc(CCN2C(=O)CCSC2c2ccc(C)c(C)c2)cc1 (centres unmarked) [2 of Table 2]
6 | 29.6 | COc1ccc(CCN2C(=O)CSC2c2ccc(OC)c(OC)c2)cc1 (centres unmarked) [5 of Table 1]
1.2 | 9.9 | COc1cccc(CCN2C(=O)CSC2c2ccc3c(c2)OCO3)c1 (centres unmarked) [8 of Table 1]
1 | 1.5 | COc1ccc(CCN2C(=O)CCSC2c2ccc3c(c2)OCO3)cc1 (centres unmarked) [18 of Table 2]
 | 14.5 | COc1ccc(CCN2C(=O)CSC2c2ccc(F)c(F)c2)cc1 (centres unmarked) [23 of Table 1]
4.7 | 30 | COc1ccc(CN2C(=O)CSC2c2cccc(OC)c2)cc1 (centres unmarked) [36 of Table 1]
0.6 |  | COc1ccc(CCN2C(=O)C(C)SC2c2ccc3c(c2)OCCO3)cc1 (centres unmarked) [45 of Table 1]
0.2 | 0.9 | COc1ccc(CCN2C(=O)CSC2c2ccc(C)c(C)c2)cc1 (centres unmarked) [52 of Table 1]
0.3 | 6.9 | Cc1ccc(C2SCC(=O)N2CCCCc2ccccc2)cc1C (centres unmarked) [60 of Table 1]
0.7 | 1.3 | CCc1ccc(C2SCC(=O)N2CCc2ccc(OC)cc2)s1 (centres unmarked) [67 of Table 1]
1.6 | 10.5 | CCCCCCN1C(=O)CSC1c1cccc(OC)c1 (centres unmarked) [77 of Table 1]
 | 4.7 | Cc1ccc(C2SCC(=O)N2CC#Cc2ccccc2)cc1C (centres unmarked) [82 of Table 1]
